The text below walks through data of US6787560B2, “Serotonin reuptake inhibitor” (Sumitomo Pharmaceuticals Company Limited, priority 2000, dated 2004).

The target of test [1] is T1, [3H]citalopram binding site, cerebral cortex membrane preparation (serotonin reuptake) (Rattus norvegicus, UniProt P31652).
T1 construct: 146 μl of the cerebral cortex membrane preparation (72 μg/well in terms of protein); from tissue; host or cells: male rat cerebral cortex membrane preparation
In words: Screening test using [3H]citalopram binding (Test Example 1). The settings on record: 0.7 nM [3H]citalopram, test agent concentration not given, read-out: Rate of inhibition of [^3H] citalopram binding (%). Here is the method: Screening Test Using [^3H[Citalopram Binding
1-1. Preparation of a Cerebral Cortex Membrane Preparation
The membrane preparation was prepared according to the method^1) of D'amato et al. In detail, after a male rat was decapitated, the whole brain was immediately removed and the cerebral cortex was separated therefrom under ice-cooling. A buffer solution (50 mM Tris-HCl (pH=7.4), 120 mM NaCl, 5 mM KCl) was added to the cerebral cortex in an amount of 2.5 times the wet weight of the cerebral cortex, followed by homogenization in an ice bath by the use of a Teflon-glass homogenizer. The homogenate was centrifuged at 4° C. and 45,000×g for 10 minutes, and the resulting precipitate was dispersed in an ice-cooled buffer solution (50 mM Tris-HCl (pH=7.4), 120 mM NaCl, 5 mM KCl) by the use of Hiscotron™, followed by centrifugation at 4° C. and 45,000×g for 10 minutes. The resulting precipitate was re-suspended and the washing procedure was repeated. The membrane preparation thus obtained was suspended in the same buffer solution as described above, and then subjected to cryopreservation at −80° C.
1-2 Receptor Binding Experiment
[^3H]citalopram binding was measured according to the method^1) of D'amato et al. In detail, 50 μl of a dilution (final concentration: 0.7 nM) of [^3H]citalopram with 50 mM Tris-HCl (pH=7.4) buffer containing 120 mM NaCl and 5 mM KCl, 146 μl of the cerebral cortex membrane preparation (72 μg/well in terms of protein) and 4 μl of a solution of a test agent in dimethyl sulfoxide were mixed to make a total volume of 200 μl. The resulting liquid was allowed to react at room temperature for 60 minutes and then rapidly filtered by suction at a low pressure through glass fiber filter paper. The glass fiber filter paper was washed twice with 250 μl of the same buffer solution as above and then transferred to a glass vial containing 4 ml of ACS-II (Amersham), and the radio-activity remaining on the filter paper was measured with a liquid scintillation counter.
The amount of [^3H]citalopram bound in the presence of 100 μM 5-HT was taken as the amount of [^3H]citalopram non-specifically bound.
(§1) Rate of binding inhibition was calculated by the following equation:
Rate of binding inhibition (%)=100−100×{[amount of [^3H]citalopram bound in the presence of test agent]−[amount of [^3H]citalopram bound in the presence of 100 μM 5-HT]/[amount of [^3H]citalopram bound in the absence of test agent]−[amount of [^3H]citalopram bound in the presence of 100 μM 5-HT]}

Test [2] has as its target T2, serotonin 1A receptors ([3H]8-OH-DPAT binding, hippocampus membrane preparation) (Rattus norvegicus, UniProt P19327).
T2 construct: 146 μl of the hippocampus membrane preparation (80 μg/tube in terms of protein); from tissue; host or cells: male rat hippocampus membrane preparation
T2 sequence (P19327 1-422): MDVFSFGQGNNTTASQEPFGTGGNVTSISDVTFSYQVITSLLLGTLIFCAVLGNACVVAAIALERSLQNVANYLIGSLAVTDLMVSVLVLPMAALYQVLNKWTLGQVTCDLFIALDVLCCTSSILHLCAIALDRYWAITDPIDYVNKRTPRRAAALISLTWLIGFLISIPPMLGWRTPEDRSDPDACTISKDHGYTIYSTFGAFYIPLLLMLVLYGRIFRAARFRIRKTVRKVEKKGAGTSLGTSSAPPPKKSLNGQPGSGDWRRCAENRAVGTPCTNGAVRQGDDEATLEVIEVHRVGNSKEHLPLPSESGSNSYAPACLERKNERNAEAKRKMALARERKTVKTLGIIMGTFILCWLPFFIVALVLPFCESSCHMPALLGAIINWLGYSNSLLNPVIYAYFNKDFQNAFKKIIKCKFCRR
Briefly: [3H]8-OH-DPAT binding test (Test Example 2). The settings on record: 2 nM [3H]8-OH-DPAT, test agent concentration not given, read-out: Rate of inhibition of [^3H] 8-OH-DPAT binding (%). Here is the method:
[^3H]18-OH-DPAT Binding Test
The test was carried out according to the method^2) of Hall M. D. et al. After pre-breeding for about 1 week, a male rat was decapitated and the brain was immediately removed. The hippocampus was separated from the brain on ice, and 50 mM Tris-HCl (pH=7.4) was added to the hippocampus in an amount of 40 times the wet weight of the hippocampus, followed by homogenization (3 min, 1 stroke/min) in an ice bath by the use of a Teflon-glass homogenizer. Then, the homogenate was centrifuged (4° C.) at 40,000×g for 10 minutes. The resulting precipitate was dispersed in an ice-cooled buffer solution (50 mM Tris-HCl (pH=7.4)) by the use of Hiscotron, followed by centrifugation (4° C.) at 40,000×g for 10 minutes. Moreover, the resulting precipitate was re-suspended and the washing procedure was repeated once. The precipitate thus obtained was dispersed in an ice-cooled buffer solution (50 mM Tris-HCl (pH=7.4)) by the use of Hiscotron™, and the resulting dispersion was incubated at 37° C. for 1 hour and then centrifuged (4° C.) at 40,000×g for 10 minutes. Furthermore, the resulting precipitate was re-suspended and the washing procedure was repeated once. The resulting membrane preparation was suspended in the same buffer solution as described above, and then subjected to cryopreservation at −80° C.
Measurement was carried out by using a liquid for reaction obtained by adding 50 μl of [^3H]8-OH-DPAT (final concentration: 2 nM), 4 μl of a solution of a test agent and 146 μl of the hippocampus membrane preparation (80 μg/tube in terms of protein) to a buffer solution containing 50 mM Tris-HCl (pH=7.4) and 4 mM CaCl2 to make a total volume of 200 μl. The liquid for reaction was allowed to react at room temperature for 30 minutes and then rapidly filtered by suction at a low pressure through glass fiber filter paper. The glass fiber filter paper was washed twice with 250 μl of a buffer solution and then added to a glass vial containing 4 ml of ACS-II (Amersham), and the radioactivity bound to receptors and remaining on the filter paper was measured with a liquid scintillation counter. The amount of [^3H]8-OH-DPAT bound in the presence of 1 μM of 8-OH-DPAT was taken as the amount of [^3H]8-OH-DPAT non-specifically bound.
as §1
Rate of binding inhibition (%)=100−100×{[amount of [^3H]8-OH-DPAT bound in the presence of test substance]−[amount of [^3H]8-OH-DPAT bound in the presence of 1 μM 8-OH-DPAT]/[amount of [^3H]8-OH-DPAT bound in the absence of test substance]−[amount of [^3H]8-OH-DPAT bound in the presence of 1 μM 8-OH-DPAT]}

Test [3] has as its target T3, human 5-HT1A receptors (human 5-HT1A/CHO membrane preparation) (Homo sapiens, UniProt P08908).
T3 construct: expressed in transfected cells; host or cells: CHO cells (human 5-HT1A/CHO), Geneticin-selected
T3 sequence (P08908 1-422): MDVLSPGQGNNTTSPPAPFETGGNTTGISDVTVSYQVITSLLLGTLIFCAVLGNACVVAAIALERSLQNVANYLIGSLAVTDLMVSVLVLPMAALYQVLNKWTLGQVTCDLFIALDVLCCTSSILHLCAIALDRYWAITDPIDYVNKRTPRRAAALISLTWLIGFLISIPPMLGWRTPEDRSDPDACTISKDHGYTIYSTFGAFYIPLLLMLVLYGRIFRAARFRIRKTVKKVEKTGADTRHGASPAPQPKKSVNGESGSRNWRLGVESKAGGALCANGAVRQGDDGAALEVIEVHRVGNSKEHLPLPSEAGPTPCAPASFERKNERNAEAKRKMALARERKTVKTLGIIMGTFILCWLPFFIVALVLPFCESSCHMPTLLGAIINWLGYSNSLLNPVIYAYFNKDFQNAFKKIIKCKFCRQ
Briefly: 5-HT1A receptor actuation test, [35S]GTPγS binding (Test Example 3). The class given is biochemical. The settings on record: 10^-5 M test substance; rate of increase in [35S]GTPγS binding, increase due to 10 μM 5-HT taken as 100%. Here is the method:
5-HT1A Receptor Actuation Test
3-1. Cells Used and Preparation of a Membrane Preparation
Human ^5-HT1A receptor expression CHO cells (human 5-HT1A/CHO) were used in the experiment. The cells were cultured on F12 containing 10% FCS, 500 μg/ml Geneticin and 100 U/ml penicillin-100 μg/ml streptomycin (all available from GIBCO) in a 5% CO2 incubator, and a membrane preparation was prepared according to the method^3) of A. Newman et al. In detail, cells peeled and collected by the use of buffer solution A (20 mM HEPES, 5 mM MgSO4) were homogenized in a Teflon homogenizer, followed by centrifugation (50,000×g, 30 min, 4° C.). The precipitate was re-suspended in a suitable volume of buffer solution A and stored at −80° C. until use The amount of proteins in the membrane preparation was determined with Dye Reagent Concentrate (BIO-RAD) by using Albumin Bovine (SIGMA) as a standard substance.
Binding of [^35S]GTPγS to human 5-HT1A receptors was measured by the use of the above-mentioned membrane preparation according to the method^3) of Newman et al. In detail, 0.05 nM of [^35S]GTPγS (E. I. du Pont de Nemours & Co. NEN) and a definite amount (about 50 μg/tube) of the membrane preparation were added to buffer solution B (20 mM HEPES, 3 mM MgSO4, 3 μM GDP, 1 mM DTT) containing 10^−5M of each test substance, and the resulting liquid for reaction having a total volume of 1 ml was incubated at 22° C. for 20 minutes. After completion of the reaction, the reaction mixture was diluted with 5 ml of ice-cooled buffer solution B, and the dilution was rapidly filtered by suction at a low pressure through glass fiber filter paper (Whatman, GF/B) to terminate the reaction. The glass fiber filter paper was washed twice with the same buffer solution as above and placed in a vial, and 4 ml of ACS-II was added thereto. The radioactivity of [^35S]GTPγS on the filter paper was measured with a liquid scintillation counter. The amount of [^35S]GTPγS specifically bound was calculated from the amount of [^35S]GTPγS non-specifically bound in the presence of 10 μM of GTPγS (Sigma). The 5-HTLA receptor actuating activity of each test substance was expressed in terms of the rate of increase in [^35S]GTPγS binding by taking an increase in [^35S]GTPγS binding due to 10 μM of 5-HT as 100%.
On the technique in general: GTPγS resists hydrolysis and so accumulates on activated G proteins.

Structures are written as SMILES.

One may read the inhibition as the share of the control response that was lost under treatment.

T1 sequence (P31652 whole entry): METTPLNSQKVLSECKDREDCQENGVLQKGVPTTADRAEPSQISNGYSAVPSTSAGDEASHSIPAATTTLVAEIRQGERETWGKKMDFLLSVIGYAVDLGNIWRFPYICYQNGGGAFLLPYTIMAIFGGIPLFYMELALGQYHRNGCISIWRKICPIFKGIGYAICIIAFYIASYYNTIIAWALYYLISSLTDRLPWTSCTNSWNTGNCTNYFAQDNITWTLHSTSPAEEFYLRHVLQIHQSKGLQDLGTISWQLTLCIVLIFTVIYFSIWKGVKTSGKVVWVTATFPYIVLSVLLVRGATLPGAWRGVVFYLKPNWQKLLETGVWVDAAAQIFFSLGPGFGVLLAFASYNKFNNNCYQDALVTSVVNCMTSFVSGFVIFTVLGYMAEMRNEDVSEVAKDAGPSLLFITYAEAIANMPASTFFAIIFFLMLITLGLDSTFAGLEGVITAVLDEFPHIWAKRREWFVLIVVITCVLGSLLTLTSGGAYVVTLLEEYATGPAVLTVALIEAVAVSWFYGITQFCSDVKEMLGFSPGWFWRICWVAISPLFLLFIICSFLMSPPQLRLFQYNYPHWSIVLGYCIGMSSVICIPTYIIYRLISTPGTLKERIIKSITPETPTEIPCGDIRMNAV

With `COc1ccc(Br)c(CC2CCN(CCc3ccccc3)CC2)c1` [Example 11, N-phenethyl-4-(2-bromo-5-methoxybenzyl)-piperidine], the inhibition amounted to 82% in test [1] and 96% in test [2]. In addition, the “5-HT14 receptor actuating activity (%)” value in test [3] turned out to be 32%.

For the compound `COc1ccc(Br)c(CC2CCN(Cc3cccc(C(=O)NCc4ccccc4)c3)CC2)c1` [Example 12], the results for the inhibition in test [1] and in test [2] were 100% and 98%, respectively. Moreover, in test [3], the “5-HT14 receptor actuating activity (%)” value is 19%.

As for `NC(=O)c1cccc(CCN2CCC(Cc3ccccc3Br)CC2)c1` [Example 49], the inhibition in test [1] is 98%; in test [2] it was 47%. Also, in test [3], the “5-HT14 receptor actuating activity (%)” value is on record as 48%.

As for `COc1ccc(Br)c(CC2CCN(CCc3cccc4ccccc34)CC2)c1` [Example 54, N-(2-(1-naphthyl)ethyl)-4-(2-bromo-5-methoxybenzyl)piperidine], the values for the inhibition in test [1] and in test [2] were 73% and 92%, respectively.

On to `COc1ccc(Cl)c(CC2CCN(CCCN3C(=O)c4ccccc4C3=O)CC2)c1` [Example 82, N-(3-phthaliminopropyl)-4-(2-chloro-5-methoxybenzyl)piperidine], for which the inhibition in test [1] is 100%; in test [2], 72%. Also, the “5-HT14 receptor actuating activity (%)” value in test [3] came out at 49%.

Take `COc1ccc(Br)c(CC2CCN(CCc3cccnc3)CC2)c1` [Example 103, N-(2-(3-pyridyl)ethyl)-4-(2-bromo-5-methoxybenzyl)piperidine]: the results for the inhibition in test [1] and in test [2] were 91% and 94%, respectively. The “5-HT14 receptor actuating activity (%)” value in test [3] is 52%.

For `CCOc1ccc(Br)c(CC2CCN(CCc3ccccc3Cl)CC2)c1` [Example 169, N-(2-(2-chlorophenyl)ethyl)-4-(2-bromo-5-ethoxybenzyl)piperidine], the inhibition in test [1] is 86%; in test [2], 74%. For the same compound, in test [3], the “5-HT14 receptor actuating activity (%)” value was 48%.
